Reference: patent publication US11103488B2, “Methods of treating autoimmune, respiratory and inflammatory disorders by inhalation of roflumilast N-oxide” (Incozen Therapeutics Pvt. Ltd., priority 2013, dated 2021)
Like-named read-outs stand apart in the source and are kept apart here.

How the values were obtained:
[1] = Lung microsome metabolic stability, rat; type: in vitro ADME; conditions: rat lung microsomes, 1 μM test item, 60 minutes, NADPH
Description: (§1) Metabolic stability studies were conducted using rat, dog and human lung microsomes. The protocol for the studies with rat, dog, and human lung microsomes (from Xenotech, USA) is provided below.
(§2) 0.4 mg protein was preincubated with 2 mM NADPH (cofactor) in phosphate buffer (pH˜7.4) for 15 minutes at […] and then added with 1 μM test item and incubated further for 60 minutes in triplicate. The reaction mixture was terminated with methanol containing an internal standard and centrifuged further to analyze the test item remaining in the supernatant by LC-MS/MS. The percent parent compound remaining was calculated in comparison with similar samples terminated at 0 minutes.

[2] = Lung microsome metabolic stability, dog; type: in vitro ADME; conditions: dog lung microsomes, 1 μM test item, 60 minutes, NADPH
Description: as §1, §2

[3] = Lung microsome metabolic stability, human; type: in vitro ADME; conditions: 1 μM test item, 60 minutes, NADPH
Description: as §1, §2

[4] = test system: neutrophil infiltration (LPS-induced neutrophilia in BALF); test: Lipopolysaccharide (LPS) induced pulmonary neutrophilia; type: in vivo, female Sprague-Dawley rat; conditions: for ED50: Rattus norvegicus, Neutrophil, read-out: 50% inhibition (ED50) dose, neutrophil infiltration
Description: Roflumilast was prepared as a suspension in a suitable vehicle for oral administration. For intratracheal administration, roflumilast or roflumilast N-oxide was prepared as a dry powder mixture and administered by using a dry powder Insufflator (Penn-Century, USA) Animals were anaesthetized with ketamine and LPS solution was administered intratracheally one hour after roflumilast (at a dose of 0.3, 1, 3, and 10 mg/kg orally), or 30 minutes after roflumilast (at a dose of 10, 30 and 100 μg/kg i.t) or roflumilast N-oxide administration (at a dose of 10, 30 and 100 μg/kg, i.t). 6 hours after LPS instillation, animals were exsanguinated under anaesthesia, and then trachea were cannulated and the lungs were lavaged with 5-ml aliquots of heparinised PBS (1 unit/ml) four times through tracheal cannula (total volume 20 ml). BAL (bronchoalveolar lavage) fluid was stored at 2-8° C. until assayed for total cell and differential leukocyte count. Bronchioalveolar fluid was centrifuged (500×g for 10 minutes) and the resulting cell pellet was resuspended in 0.5 ml of heparinized saline. The total number of white blood cells were determined in BAL fluid using a blood cell counter and were adjusted to 1×10^6 cell/ml. Differential cell count was calculated manually. One hundred microliters of the cell suspension was centrifuged using cytospin 3 to prepare a cell smear. The cell smear was stained with a blood staining solution for differentiation and slides were microscopically observed to identify eosinophil according to their morphological characteristics. The number of each cell type among 300 white blood cells in the cell smear was determined and expressed as a percentage. The total number of neutrophils in each BAL fluid was calculated.
Roflumilast and roflumilast N-oxide were administered intratracheally (i.t) at doses of 100, 30, and 10 μg/kg as 1:200; 1:500; and 1:1000 drug:lactose blends, respectively.

macrophage infiltration = test: Acute cigarette smoke induced cell infiltration, macrophages; type: in vivo, female Balb/c mice; conditions: for Percent inhibition in macrophage infiltration: oral, day 1 to day 4
Description: (§3) Animals were acclimatized for seven days prior to the start of the experiment. The animals were randomly distributed to various groups based on their body weight. For oral administration of roflumilast and for intranasal administration of roflumilast N-oxide, roflumilast or roflumilast N-oxide were prepared as a suspension in a suitable vehicle. On day 1, mice were administered roflumilast N-oxide or roflumilast and after 1 hour, the animals were placed in a whole body exposure box. On day 1 and day 2, the mice were exposed to the mainstream smoke of 6 cigarettes, and 8 cigarettes on day 3 and day 4. Exposure to the smoke of each cigarette lasted for 10 minutes (cigarettes were completely burned in the first two minutes and followed by an air flow with animal ventilator, then 20 minutes exposure to fresh room air). After every second cigarette an additional break of 20 minutes with exposure to fresh room air was conducted. Control animals were exposed to room air chamber. From day 1 to day 4, the animals were administered roflumilast N-oxide or roflumilast. On day 5, 24 hours after the last cigarette smoke (CS) exposure, the animals were exsanguinated under anaesthesia, the trachea were cannulated and the lungs were lavaged with 0.5-ml aliquots of heparinised PBS (1 unit/ml) four times through tracheal cannula (total volume 2 ml). Bronchioalveolar (BAL) collected was stored at 2-8° C. until assayed for total cell and differential leukocyte count. BAL fluid was centrifuged (500×g for 10 minutes) and the resulting cell pellet was resuspended in 0.5 ml of heparinised saline. The total number of white blood cells was determined in BAL fluid and adjusted to 1×10^6 cell/ml. Differential cell count was calculated manually by diff-quick staining. Forty microliters of the cell suspension was centrifuged using cytospin 3 to prepare a cell smear. The cell smear was stained with a blood staining solution for differentiation and microscopically observed to identify cell type according to their morphological characteristics. The number of each cell type among 300 white blood cells in the cell smear were determined and expressed as a percentage, and the number of neutrophils and macrophages in each BAL fluid were calculated.
(§4) Roflumilast and roflumilast N-oxide as a suspension in polysorbate 80 (1% v/v) and methyl cellulose (MC) (0.5% w/v) were used for oral and intranasal administration respectively.

neutrophil infiltration = test: Acute cigarette smoke induced cell infiltration, neutrophils; type: in vivo, female Balb/c mice; conditions: for Percent inhibition in neutrophil infiltration: oral, day 1 to day 4
Description: as §3, §4

[5] = 7-day repeat dose safety study; type: in vivo, Wistar Rats
Description: In order to determine the safety of roflumilast N-oxide by inhalation compared to roflumilast by oral administration, a 7- and 14-day repeat dose safety study was conducted according to the protocol given in Table 5 below.

[6] = roflumilast n = 4438; count, second figure in brackets; cited from earlier work

SMILES: O=C(Nc1c(Cl)cncc1Cl)c1ccc(OC(F)F)c(OCC2CC2)c1 [Roflumilast]
- Percent Parent Compound Remaining, Rat [1]: 97.1%
- Percent Parent Compound Remaining, Dog [2]: 97.4%
- Percent Parent Compound Remaining, Human Non Smoker ([3]; human non smoker lung microsomes): 99.8%
- Percent Parent Compound Remaining, Human Smoker ([3]; human smoker lung microsomes): 98.8%
- ED50 ([4]; inhaled or nasal, intratracheal administration): 0.026 mg/kg
- ED50 ([4]; oral administration): 1.8 mg/kg
- Percent inhibition in neutrophil infiltration ([4]; intratracheal dry powder, 10 μg/kg, 30 minutes before LPS): 31.76%
- Percent inhibition in neutrophil infiltration ([4]; intratracheal dry powder, 30 μg/kg, 30 minutes before LPS): 60.47%
- Percent inhibition in neutrophil infiltration ([4]; intratracheal dry powder, 100 μg/kg, 30 minutes before LPS): 64.40%
- Percent inhibition in neutrophil infiltration ([4]; oral, 0.3 mg/kg, one hour before LPS, BAL 6 hours after LPS): −7.89%
- Percent inhibition in neutrophil infiltration ([4]; oral, 1 mg/kg, one hour before LPS, BAL 6 hours after LPS): 43.46%
- Percent inhibition in neutrophil infiltration ([4]; oral, 3 mg/kg, one hour before LPS, BAL 6 hours after LPS): 68.02%
- Percent inhibition in neutrophil infiltration ([4]; oral, 10 mg/kg, one hour before LPS, BAL 6 hours after LPS): 92.21%
- ED50 (macrophage infiltration; Mus musculus, Macrophage, oral administration, read-out: 50% inhibition (ED50) dose, macrophage infiltration): 3.5 mg/kg
- Percent inhibition in macrophage infiltration (macrophage infiltration; 1 mg/kg (b.i.d. per FIG. 4)): 22.2%
- Percent inhibition in macrophage infiltration (macrophage infiltration; 3 mg/kg (b.i.d. per FIG. 4)): 51.00%
- Percent inhibition in macrophage infiltration (macrophage infiltration; 10 mg/kg (b.i.d. per FIG. 4)): 69.11%
- ED50 (neutrophil infiltration; Mus musculus, Neutrophil, oral administration, read-out: 50% inhibition (ED50) dose, neutrophil infiltration): 1.75 mg/kg
- Percent inhibition in neutrophil infiltration (neutrophil infiltration; 1 mg/kg (b.i.d. per FIG. 4)): 70.85%
- Percent inhibition in neutrophil infiltration (neutrophil infiltration; 3 mg/kg (b.i.d. per FIG. 4)): 73.69%
- Percent inhibition in neutrophil infiltration (neutrophil infiltration; 10 mg/kg (b.i.d. per FIG. 4)): 83.01%
- MORTALITY ([5]; Oral, 10 mg/Kg/day, 7 days): 1M animal died on day 7
- Multiple of ED50 at which toxic ([5]; Wistar, rat, in vivo, 7 days): 5.5 fold
- Overall safety in repeat dose study ([5]; rat, in vivo, po, 10 mg/kg): showed significant toxicity
- CLINICAL CHEMISTRY ([5]; rat, in vivo, po, 10 mg/kg/day): Yes, reduced serum
- CLINICAL SIGNS ([5]; rat, in vivo, po, 10 mg/kg/day): Abnormal clinical
- GROSS PATHOLOGY ([5]; rat, in vivo, po, 10 mg/kg/day): Yes, treatment related
- HEMATOLOGY ([5]; rat, in vivo, po, 10 mg/kg/day): Yes, elevated WBC
- AEs: Back pain [6]: 142 (3.2)
- AEs: Decreased appetite [6]: 91 (2.1)
- AEs: Diarrhoea [6]: 420 (9.5)
- AEs: Dizziness [6]: 92 (2.1)
- AEs: Headache [6]: 195 (4.4)
- AEs: Influenza [6]: 124 (2.8)
- AEs: Insomnia [6]: 105 (2.4)
- AEs: Nausea [6]: 209 (4.7)
- AEs: Weight loss [6]: 331 (7.5)
